In US20240150293A1, “SPIROCYCLOHEXANE DERIVATIVES, PHARMACEUTICAL COMPOSITIONS CONTAINING THEM AND THEIR USES AS ANTI-APOPTOTIC INHIBITORS” (LES LABORATOIRES SERVIER, priority 2021, published 2024):
Like-named read-outs stand apart in the source and are kept apart here.

Assays:
[1] = molecular target: Cy5-labelled Mcl1 (amino acids 171-321) C286S protein (UniProtKB Q07820) (Homo sapiens (Human), UniProt Q07820, C286S); assay: Inhibition of Mcl-1 by the fluorescence quenching assay (Example A, Method B); assay type: binding
Cy5-labelled Mcl1 (amino acids 171-321) C286S protein, sequence (Q07820 171-321 C286S): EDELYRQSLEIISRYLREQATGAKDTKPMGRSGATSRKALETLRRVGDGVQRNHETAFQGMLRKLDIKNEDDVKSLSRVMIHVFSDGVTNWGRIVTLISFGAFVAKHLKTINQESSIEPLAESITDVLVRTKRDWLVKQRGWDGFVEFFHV
Summary of the method: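 Eleven-point compound series incubated 2 h at room temperature with 1 nM Cy5-tagged protein and quencher-labelled PUMA peptide at 10, 20 or 400 nM in HEPES/NaCl/Tween 20, pH 7.4, 5% DMSO. IC50 for 50% fluorescence increase by 4-parameter fit, then Ki derived (complete cKi or estimated eKi).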

[2] = tested on: H929 multiple myeloma tumor line; assay: In vitro cytotoxicity, MTT assay (Example B, Method A); assay type: cell-based; settings: H929 cells, 48 hours exposure, read-out: C50
Experimental: The cytotoxicity studies were carried out on the H929 multiple myeloma tumor line.
The cells are distributed onto microplates and exposed to the test compounds for 48 hours. The cell viability is then quantified by a colorimetric assay, the Microculture Tetrazolium Assay (Carmichael et al, Cancer Res. 1987, 47, 939-942).
The results are expressed in C50 which means concentration corresponding to […] of effect/inhibition.

Row | Compound | Ki [1] | IC50 ([2]; Homo sapiens, NCI-H929, 48 h) | IC50 [2] | Ki ([1]; Ki determined from IC50)
1 | C[C@@H]1CCCc2nccc(OCC(CC3=Cc4ccccc4[C@]34CC[C@@](Nc3cccc(Cl)c3)(C(=O)O)CC4)c3ccccn3)c21 (stereo partly drawn) [Example 566, (1r,4R)-4-(3-chloroanilino)-2′-[3-{[(5R)-5-methyl-5,6,7,8-tetrahydroquinolin-4-yl]oxy}-2-(pyridin-2-yl)propyl]spiro[cyclohexane-1,1′-indene]-4-carboxylic acid] | 0.00434 µM | 0.721 µM |  | 
2 | C[C@@H](COc1ccnc2c1[C@H](C)CCC2)C[C@H]1Cc2ccccc2[C@]12CC[C@](C(=O)O)(N1CCc3c(Cl)cccc31)CC2 [Example 713, (1r,2′S,4S)-4-(4-chloro-2,3-dihydro-1H-indol-1-yl)-2′-[(2R)-2-methyl-3-{[(5R)-5-methyl-5,6,7,8-tetrahydroquinolin-4-yl]oxy}propyl]-2′,3′-dihydrospiro[cyclohexane-1,1′-indene]-4-carboxylic acid] | 0.00323 µM | 0.152 µM |  | 
3 | C[C@@H](COc1ccnc2c1C(F)CCC2)C[C@H]1Cc2ccccc2[C@]12CC[C@@](Nc1cccc(Cl)c1)(C(=O)O)CC2 (single isomer, unassigned) [Example 686] | 0.00185 µM |  | 0.442 µM | 
4 | Cc1cccc2c1CC(C[C@@H](C)COc1ccnc3c1[C@H](C)CCC3)[C@]21CC[C@](Nc2cccc(Cl)c2)(C(=O)O)CC1 (single isomer, unassigned) [Example 755] | 0.00094 µM |  | 0.0584 µM | 
5 | CC[C@@H]1CCc2nccc(OC[C@H](C)C[C@H]3Cc4ccccc4[C@]34CC[C@@](Nc3cccc(Cl)c3)(C(=O)O)CC4)c21 [Example 612, (1r,2′S,4S)-4-(3-chloroanilino)-2′-[(2R)-3-{[(5R)-5-ethyl-6,7-dihydro-5H-cyclopenta[b]pyridin-4-yl]oxy}-2-methylpropyl]-2′,3′-dihydrospiro[cyclohexane-1,1′-indene]-4-carboxylic acid] | 0.000565 µM | 0.315 µM |  | 
6 | C[C@@H]1CCCc2nccc(OCC(F)CC3Cc4ccccc4[C@]34CC[C@@](Nc3cccc(Cl)c3)(C(=O)O)CC4)c21 (single isomer, unassigned) [Example 509] | 0.0053 µM |  | 0.999 µM | 
7 | CC(O)c1ccc2c(c1)[C@]1(CC[C@@](Nc3cccc(Cl)c3)(C(=O)O)CC1)[C@@H](C[C@@H](C)COc1ccnc3c1[C@H](C)CC[C@H]3O)C2 (single isomer, unassigned) [Example 862] | 0.000113 µM |  | 0.0738 µM | 
8 | C[C@@H]1CCCc2nccc(OCC(CC3Cc4ccccc4[C@]34CC[C@@](Nc3cccc(Cl)c3)(C(=O)O)CC4)C(F)F)c21 (single isomer, unassigned) [Example 519] | 0.000909 µM |  | 0.202 µM | 
9 | C[C@@H](COc1ccnc2c1[C@@H](C)CCC2)C[C@H]1Cc2cc3c(cc2[C@]12CC[C@@](Nc1cccc(Cl)c1)(C(=O)O)CC2)OCO3 [Example 842, (1r,4S,6′S)-4-(3-chloroanilino)-6′-[(2R)-2-methyl-3-{[(5S)-5-methyl-5,6,7,8-tetrahydroquinolin-4-yl]oxy}propyl]-6′,7′-dihydro-2′H-spiro[cyclohexane-1,5′-indeno[5,6-d][1,3]dioxole]-4-carboxylic acid] | 0.00155 µM | 0.081 µM |  | 
10 | CCCC#C[C@@H](COc1ccnc2ccsc12)CC1=Cc2ccccc2[C@]12CC[C@@](Nc1cccc(Cl)c1)(C(=O)O)CC2 [Example 565, (1r,4S)-4-(3-chloroanilino)-2′-[(2S)-2-{[(thieno[3,2-b]pyridin-7-yl)oxy]methyl}hept-3-yn-1-yl]spiro[cyclohexane-1,1′-indene]-4-carboxylic acid] | 0.0108 µM | 2.39 µM |  | 
11 | CO[C@H]1CCCc2nccc(OC[C@H](C)C[C@H]3Cc4ccccc4[C@]34CC[C@@](Nc3cccc(Cl)c3)(C(=O)O)CC4)c21 [Example 671, (1r,2′S,4S)-4-(3-chloroanilino)-2′-[(2R)-3-{[(5S)-5-methoxy-5,6,7,8-tetrahydroquinolin-4-yl]oxy}-2-methylpropyl]-2′,3′-dihydrospiro[cyclohexane-1,1′-indene]-4-carboxylic acid] | 0.0393 µM | 2.56 µM |  | 
12 | C[C@@H](COc1ccnc2c1[C@@H](C)CC[C@H]2O)C[C@H]1Cc2ccccc2[C@]12CC[C@@](Nc1cccc(Cl)c1)(C(=O)O)CC2 [Example 674, (1r,2′S,4S)-4-(3-chloroanilino)-2′-[(2R)-3-{[(5S,8R)-8-hydroxy-5-methyl-5,6,7,8-tetrahydroquinolin-4-yl]oxy}-2-methylpropyl]-2′,3′-dihydrospiro[cyclohexane-1,1′-indene]-4-carboxylic acid] | 0.00695 µM | 1.71 µM |  | 
13 | C[C@@H](COc1ccnc2c1CCC2O)C[C@H]1Cc2ccccc2[C@]12CC[C@@](Nc1cccc(Cl)c1)(C(=O)O)CC2 (single isomer, unassigned) [Example 608] | 0.00162 µM | 0.792 µM |  | 
14 | C[C@@H](COc1ccnc2c1[C@H](C)CCC2)CC1Cc2c(Cl)cccc2[C@]12CC[C@@](Nc1cccc(Cl)c1)(C(=O)O)CC2 (single isomer, unassigned) [Example 740] | 0.000827 µM |  | 0.0459 µM | 
15 | C[C@@H](COc1ccnc2c1[C@@H](C)CCC2)C[C@H]1Cc2ccccc2[C@]12CC[C@@](Nc1cccc(Cl)c1)(C(=O)O)CC2 [Example 654, (1r,2′S,4S)-4-(3-chloroanilino)-2′-[(2R)-2-methyl-3-{[(5S)-5-methyl-5,6,7,8-tetrahydroquinolin-4-yl]oxy}propyl]-2′,3′-dihydrospiro[cyclohexane-1,1′-indene]-4-carboxylic acid] | 0.0052 µM | 0.765 µM |  | 
16 | C[C@@H]1CCCc2nccc(OCC(CF)CC3=Cc4ccccc4[C@]34CC[C@@](Nc3cccc(Cl)c3)(C(=O)O)CC4)c21 (single isomer, unassigned) [Example 515] | 0.0264 µM |  | 2.39 µM | 
17 | C[C@@H](COc1ccnc2c1[C@H](C)CC[C@H]2O)C[C@H]1Cc2ccccc2[C@]12CC[C@@](Nc1cccc(Cl)c1)(C(=O)O)CC2 [Example 673, (1r,2′S,4S)-4-(3-chloroanilino)-2′-[(2R)-3-{[(5R,8S)-8-hydroxy-5-methyl-5,6,7,8-tetrahydroquinolin-4-yl]oxy}-2-methylpropyl]-2′,3′-dihydrospiro[cyclohexane-1,1′-indene]-4-carboxylic acid] | 0.000647 µM |  | 0.208 µM | 
18 | C[C@@H](COc1ccnc2c1CCCC2C(F)F)C[C@H]1Cc2ccccc2[C@]12CC[C@@](Nc1cccc(Cl)c1)(C(=O)O)CC2 (single isomer, unassigned) [Example 682] | 0.0466 µM | 5.18 µM |  | 
19 | CC[C@@H]1CCCc2nccc(OC[C@H](C)C[C@H]3Cc4ccccc4[C@]34CC[C@@](Nc3cccc(Cl)c3)(C(=O)O)CC4)c21 [Example 657, (1r,2′S,4S)-4-(3-chloroanilino)-2′-[(2R)-3-{[(5R)-5-ethyl-5,6,7,8-tetrahydroquinolin-4-yl]oxy}-2-methylpropyl]-2′,3′-dihydrospiro[cyclohexane-1,1′-indene]-4-carboxylic acid] | 0.00294 µM | 0.139 µM |  | 
20 | O=C(O)[C@]1(Nc2cccc(Cl)c2)CC[C@]2(CC1)C(Br)=Cc1ccccc12 [Example 75, (1s,4s)-2′-bromo-4-(3-chloroanilino)spiro[cyclohexane-1,1′-indene]-4-carboxylic acid] |  | 30 µM |  | 0.119 µM
